Test results as given in ChEMBL document CHEMBL3992552, “Mechanisms of action and structure-activity relationships of cytotoxic flavokawain derivatives” (Bioorg Med Chem, 2017).
pIC50: −log10 of the molar value. Active and inactive are the calls of the source. The rule behind the calls is not given here.

Legend:
PC-3 [1] = assay: Cell cycle arrest in human PC3 cells harboring p53 mutant assessed as mitotic index at 10 uM measured after 48 hrs by Hoechst staining based fluorescence assay (reference value: 2.5); type: functional
HaCaT [2] = assay: Cell cycle arrest in human HaCaT cells harboring […] p53 assessed as accumulation at S phase at 25 uM measured after 48 hrs by Hoechst/BrdU staining based fluorescence assay (reference value: 52.3%); type: functional
Huh-7 [3] = assay: Cytotoxicity against human HuH7 cells assessed as cell survival at 50 uM after 48 hrs by Hoechst 33342 staining based assay relative to control; type: functional; conditions: Huh-7, 48 h, read-out: Survival
Huh-7 [4] = assay: Cytotoxicity against human HuH7 cells assessed as cell viability after 48 hrs by Hoechst 33342 staining based assay; type: functional; conditions: Huh-7, 48 h
MDA-MB-231 [5] = assay: Cytotoxicity against human MDA-MB-231 cells assessed as cell survival at 50 uM after 48 hrs by Hoechst 33342 staining based assay relative to control; type: functional; conditions: MDA-MB-231, 48 h, read-out: Survival
HCT-116 [6] = assay: Cell cycle arrest in human HCT116 cells harboring wild-type p53 assessed as mitotic index at 10 uM measured after 48 hrs by Hoechst staining based fluorescence assay (reference value: 2.3); type: functional
MCF7 [7] = assay: Induction of apoptosis in human MCF7 cells harboring wild-type p53 assessed as increase in late apoptosis at 2 times IC50 after 24 hrs by YoPro/propidium iodide/Hoechst staining based assay; type: functional, cell-based
Caco-2 [8] = assay: Cytotoxicity against human Caco2 cells assessed as cell viability after 48 hrs by Hoechst 33342 staining based assay; type: functional; conditions: Caco-2, 48 h
Caco-2 [9] = assay: Cell cycle arrest in human Caco2 cells assessed as accumulation at S phase at 10 uM measured after 48 hrs by Hoechst/BrdU staining based fluorescence assay (reference value: […]); type: functional
HCT-116 [10] = assay: Induction of apoptosis in human HCT116 cells harboring wild-type p53 assessed as increase in cleaved caspase3 at 2 times IC50 after 48 hrs by Hoechst staining based assay; type: functional, cell-based
Caco-2 [11] = assay: Cell cycle arrest in human Caco2 cells assessed as mitotic index at 25 uM measured after 48 hrs by Hoechst staining based fluorescence assay (reference value: 3.6); type: functional
Caco-2 [12] = assay: Cell cycle arrest in human Caco2 cells assessed as accumulation at S phase at 25 uM measured after 48 hrs by Hoechst/BrdU staining based fluorescence assay (reference value: […]); type: functional
MCF7 [13] = assay: Cytotoxicity against human MCF7 assessed as cell viability after 48 hrs by Hoechst 33342 staining based assay; type: functional; conditions: MCF7, 48 h
HaCaT [14] = assay: Cytotoxicity against human HaCaT cells assessed as cell viability after 48 hrs by Hoechst 33342 staining based assay; type: functional
HaCaT [15] = assay: Cytotoxicity against human HaCaT cells assessed as cell survival at 50 uM after 48 hrs by Hoechst 33342 staining based assay relative to control; type: functional; conditions: read-out: Survival
PC-3 [16] = assay: Induction of apoptosis in human PC3 cells harboring p53 mutant assessed as increase in early apoptosis at 2 times IC50 after 48 hrs by YoPro/propidium iodide/Hoechst staining based assay; type: functional, cell-based
PC-3 [17] = assay: Cytotoxicity against human PC3 cells assessed as cell viability after 48 hrs by Hoechst 33342 staining based assay; type: functional; conditions: PC-3, 48 h
HCT-116 [18] = assay: Cell cycle arrest in human HCT116 cells assessed as accumulation at G1/S phase by Hoechst staining based fluorescence assay; type: functional
Huh-7 [19] = assay: Cell cycle arrest in human HuH7 cells assessed as mitotic index at 10 uM measured after 48 hrs by Hoechst staining based fluorescence assay (reference value: 2.2); type: functional
MCF7 [20] = assay: Induction of apoptosis in human MCF7 cells harboring wild-type p53 assessed as increase in early apoptosis at 2 times IC50 after 24 hrs by YoPro/propidium iodide/Hoechst staining based assay; type: functional, cell-based
HaCaT [21] = assay: Cell cycle arrest in human HaCaT cells harboring […] p53 assessed as mitotic index at 10 uM measured after 48 hrs by Hoechst staining based fluorescence assay (reference value: 2.6); type: functional
[22] = Selectivity index, ratio of IC50 for human fibroblasts to IC50 for human HCT116 cells
MDA-MB-231 [23] = assay: Cytotoxicity against human MDA-MB-231 cells assessed as cell viability after 48 hrs by Hoechst 33342 staining based assay; type: functional; conditions: MDA-MB-231, 48 h
PC-3 [24] = assay: Cytotoxicity against human PC3 cells assessed as cell survival at 50 uM after 48 hrs by Hoechst 33342 staining based assay relative to control; type: functional; conditions: PC-3, 48 h, read-out: Survival
HaCaT [25] = assay: Cell cycle arrest in human HaCaT cells harboring […] p53 assessed as mitotic index at 25 uM measured after 48 hrs by Hoechst staining based fluorescence assay (reference value: 2.6); type: functional
Huh-7 [26] = assay: Cell cycle arrest in human HuH7 cells assessed as accumulation at S phase at 10 uM measured after 48 hrs by Hoechst/BrdU staining based fluorescence assay (reference value: 44%); type: functional
HCT-116 [27] = assay: Cell cycle arrest in human HCT116 cells harboring wild-type p53 assessed as accumulation at S phase at 25 uM measured after 48 hrs by Hoechst/BrdU staining based fluorescence assay (reference value: 68.4%); type: functional
MCF7 [28] = assay: Induction of apoptosis in human MCF7 cells harboring wild-type p53 assessed as upregulation of p21 measured after 48 hrs by Hoechst staining based fluorescence assay; type: functional, cell-based
NCI-H727 = assay: Cell cycle arrest in human NCI-H727 cells harboring p53 mutant assessed as accumulation at S phase at 25 uM measured after 48 hrs by Hoechst/BrdU staining based fluorescence assay (reference value: 40.3%); type: functional
[29] = Cytotoxicity against human fibroblasts assessed as cell survival at 50 uM after 48 hrs by Hoechst 33342 staining based assay relative to control; design: species or system Fibroblast; conditions: read-out: Survival
PC-3 [30] = assay: Cell cycle arrest in human PC3 cells harboring p53 mutant assessed as accumulation at S phase at 25 uM measured after 48 hrs by Hoechst/BrdU staining based fluorescence assay (reference value: 40.8%); type: functional
HCT-116 [31] = assay: Cytotoxicity against human HCT116 cells assessed as cell survival at 50 uM after 48 hrs by Hoechst 33342 staining based assay relative to control; type: functional; conditions: HCT-116, 48 h, read-out: Survival
[32] = Selectivity index, ratio of IC50 for human fibroblasts to IC50 for human PC3 cells
HCT-116 [33] = assay: Cell cycle arrest in human HCT116 cells harboring wild-type p53 assessed as accumulation at S phase at 10 uM measured after 48 hrs by Hoechst/BrdU staining based fluorescence assay (reference value: 68.4%); type: functional
Caco-2 [34] = assay: Cell cycle arrest in human Caco2 cells assessed as mitotic index at 10 uM measured after 48 hrs by Hoechst staining based fluorescence assay (reference value: 3.6); type: functional
MDA-MB-231 [35] = assay: Induction of apoptosis in human MDA-MB-231 cells harboring p53 mutant assessed as increase in late apoptosis at 2 times IC50 after 24 hrs by YoPro/propidium iodide/Hoechst staining based assay; type: functional, cell-based
MDA-MB-231 [36] = assay: Induction of apoptosis in human MDA-MB-231 cells harboring p53 mutant assessed as upregulation of cyclinB1 after 18 hrs by Hoechst staining based assay; type: functional, cell-based

| Compound | Activity_index (PC-3 [1]) | Activity (HaCaT [2]) | viability at 50 µM (Huh-7 [3]) | pIC50 (Huh-7 [4]) | viability at 50 µM (MDA-MB-231 [5]) | Activity_index (HCT-116 [6]) | Activity (MCF7 [7]) | pIC50 (Caco-2 [8]) | Activity (Caco-2 [9]) | Activity (HCT-116 [10]) | Activity_index (Caco-2 [11]) | Activity (Caco-2 [12]) | pIC50 (MCF7 [13]) | pIC50 (HaCaT [14]) | viability at 50 µM (HaCaT [15]) | Activity (PC-3 [16]) | pIC50 (PC-3 [17]) | Activity (HCT-116 [18]) | Activity (MCF7 [20]) | Ratio IC50 [22] | also measured |
| --- | --- | --- | --- | --- | --- | --- | --- | --- | --- | --- | --- | --- | --- | --- | --- | --- | --- | --- | --- | --- | --- |
| COc1cc(O)c(C(=O)/C=C/c2ccc(F)cc2)c(OC)c1 | 2.9 | inactive | 66% | < 4.70 | 69% | 1.2 | Active | 5.04 | 49% | Active | 24.8 | 30% | 5.06 | < 4.70 | 36% | Active | 4.88 | Active | Active | >4 | Activity (Huh-7 [19]): inactive; Activity (HaCaT [21]): inactive; pIC50 (MDA-MB-231 [23]): < 4.70; viability at 50 µM (PC-3 [24]): 56%; Activity (HaCaT [25]): inactive; Activity (Huh-7 [26]): inactive; Activity (HCT-116 [27]): 28%; Activity (MCF7 [28]): Active; Activity (NCI-H727): inactive; viability at 48 h, 50 µM [29]: > 80%; Activity (PC-3 [30]): 34%; viability at 50 µM (HCT-116 [31]): 25%; Ratio IC50 [32]: >3.8; Activity (HCT-116 [33]): 59%; Activity_index (Caco-2 [34]): 6.3 |
| COc1cccc(/C=C/C(=O)c2c(O)cc(OC)cc2OC)c1 | 4.4 | 8% | 13% | 4.82 | 11% | 1.2 | Active | 4.95 | 31% | Active | 6.1 | 34% | 4.99 | 4.98 | 7% | Active | 5.14 | Active | Active | 3.5 | Activity (MDA-MB-231 [35]): Active; Activity_index (Huh-7 [19]): 1.6; Activity_index (HaCaT [21]): 2.6; pIC50 (MDA-MB-231 [23]): 4.88; viability at 50 µM (PC-3 [24]): 22%; Activity_index (HaCaT [25]): 0.1; Activity (Huh-7 [26]): 56%; Activity (HCT-116 [27]): 37%; Activity (MCF7 [28]): Active; Activity (NCI-H727): 1.4%; viability at 48 h, 50 µM [29]: 44%; Activity (PC-3 [30]): 9.4%; viability at 50 µM (HCT-116 [31]): 0%; Ratio IC50 [32]: 3.7; Activity (HCT-116 [33]): 30%; Activity (MDA-MB-231 [36]): Active; Activity_index (Caco-2 [34]): 14.4 |
| COc1cc(O)c(C(=O)/C=C/c2ccccc2)c(OC)c1 [FLAVOKAWAIN B] | 4.2 | 21% | 10% | 4.80 | 19% | 1.1 | Active | 5.00 | 42% | Active | 19.3 | 40% | 4.81 | 4.87 | 7% | Active | 5.04 | Active | Active | 3.5 | Activity (MDA-MB-231 [35]): Active; Activity_index (Huh-7 [19]): 2.2; Activity_index (HaCaT [21]): 3.4; pIC50 (MDA-MB-231 [23]): 4.79; viability at 50 µM (PC-3 [24]): 27%; Activity_index (HaCaT [25]): 0.9; Activity (Huh-7 [26]): 55%; Activity (HCT-116 [27]): 28%; Activity (MCF7 [28]): Active; Activity (NCI-H727): 7%; viability at 48 h, 50 µM [29]: 32%; Activity (PC-3 [30]): 20%; viability at 50 µM (HCT-116 [31]): 0%; Ratio IC50 [32]: 2.9; Activity (HCT-116 [33]): 37%; Activity (MDA-MB-231 [36]): Active; Activity_index (Caco-2 [34]): 9.7 |
